Patent US8999970B2, “Administration of an anti-obesity compound to individuals with renal impairment” (Arena Pharmaceuticals, Inc., priority 2010, dated 2015)
Values joined by “and” are separate entries in the source; they are usually repeats but may differ in a detail not shown here. Equal values may be shown once. “Also recorded” adds a separate entry of the source.

Columns and labels:
[1] = Clinical trial APD356-016: plasma and urine pharmacokinetics of lorcaserin, M1 and M5 after a 10 mg dose in subjects with renal impairment; conditions: for Ae0-120 / fe0-120: urine; for AUC24 hr / Cmax / t1/2: 10 mg QD Authentic, Day 1
Experimental: The interaction of renal insufficiency with the pharmacokinetics, tolerability and safety of lorcaserin were evaluated in a formal PK study in subjects with renal impairment and in the populations studied in phase 2 and phase 3 clinical studies.
The pharmacokinetic properties of lorcaserin in subjects with varying degrees of renal impairment were evaluated in clinical trial APD356-016. At the time of study conduct and analysis, subjects were assigned to renal impairment groups based on creatinine clearance calculated using IDEAL body weight (Table 1). This calculation was used to avoid overestimation of creatinine clearance due to the excess body weight (overweight and obese subjects were enrolled in the trial). Summaries of pharmacokinetic properties by group assignment using creatinine clearance calculated using ACTUAL body weights are also provided in the sections that follow.
The FDA expects a reasonable margin between anticipated exposures and exposures that may produce toxicity. A reasonable margin can vary depending on the expected toxicity, but generally is an order of magnitude (10 times), but can sometimes be less for mild toxicity.
Table 13. Summary of Plasma Concentrations (ng/mL) of HSO3-APD356 Metabolite over Time by Group: Severe Renal Impairment Not Receiving Dialysis (see Table 13 next page)
Subject number 3140-505 was on dialysis and grouped in the end stage renal disease group.

[2] = Preclinical toxicology: lorcaserin, M1 and M5 pharmacokinetics after oral administration of lorcaserin, 52 wk, monkeys; conditions: for AUC0-inf / AUClast / Cmax / tmax: Monkeys, 52 wk
Experimental: Lorcaserin doses of 0, 2, 10, 50, and 125 mg/kg in a 5 mL/kg dose volume were administered by nasogastric intubation once daily for 12 months to cynomolgus monkeys (4 to 6/sex/group). Two animals/sex from the control, 50 and 125 mg/kg groups were continued on study without further dosing for an additional 4 weeks prior to termination. For the first 91 days of the study, dose solutions were prepared using anhydrous lorcaserin. Starting on Day 92 and continuing for the remainder of the study, dose solutions were prepared using lorcaserin hemihydrate to match the intended commercial form. […] Evaluations included clinical signs, food consumption, BW, electrocardiograms, ophthalmic exams, and clinical pathology indices. Blood samples were collected for TK analysis on Day 1, Week 4, Day 91, Day 92, and Week 52. A full necropsy was conducted on all animals, and tissues were collected, preserved, processed, and examined microscopically. Additional sections of heart were collected to allow comprehensive evaluation of all heart valves. Heart histopathologic evaluation included atria, ventricles, interventricular septum, both AV valves (mitral and tricuspid), and the aortic and pulmonic valves.

[3] = 10 mg dose, Mild, actual BW groups
[4] = 10 mg dose, Mild, ideal BW groups
[5] = 10 mg dose, Moderate, actual BW groups
[6] = 10 mg dose, Moderate, ideal BW groups
[7] = 10 mg dose, Normal, actual BW groups
[8] = 10 mg dose, Normal, ideal BW groups
[9] = 10 mg dose, Severe N = 1, actual BW groups
[10] = 10 mg dose, Severe, ideal BW groups
[11] = lorcaserin 10 mg/kg/day oral, F
[12] = lorcaserin 10 mg/kg/day oral, M
[13] = lorcaserin 50 mg/kg/day oral, F
[14] = lorcaserin 50 mg/kg/day oral, M
[15] = lorcaserin 125 mg/kg/day oral, F
[16] = lorcaserin 125 mg/kg/day oral, M

With `C[C@H]1CN(S(=O)(=O)O)CCc2ccc(Cl)cc21` [Compound M1, lorcaserin sulfamate] the “% AUC0-inf Extrapolated” value [1, 3] was 4.54%, the ClNR/F [1, 3] was 16.7 L/h and the T1/2z [1, 3] was 14.6 h. The “% AUC0-inf Extrapolated” value [1, 4] was 3.36%, the ClNR/F [1, 4] was 12.8 L/h and the T1/2z [1, 4] was 13.0 h. For the same compound, the “% AUC0-inf Extrapolated” value [1, 5] was 3.74%, the ClNR/F [1, 5] was 18.2 L/h and the T1/2z [1, 5] was 14.9 h. For the same compound, the “% AUC0-inf Extrapolated” value [1, 6] was 4.92%, the ClNR/F [1, 6] was 17.0 L/h and the T1/2z [1, 6] was 15.9 h. For the same compound, the “% AUC0-inf Extrapolated” value [1, 7] was 3.57%, the ClNR/F [1, 7] was 15.1 L/h and the T1/2z [1, 7] was 12.1 h. For the same compound, the “% AUC0-inf Extrapolated” value [1, 8] was 3.81%, the ClNR/F [1, 8] was 17.1 L/h and the T1/2z [1, 8] was 11.0 h. For the same compound, the “% AUC0-inf Extrapolated” value [1, 9] was 3.70%, the ClNR/F [1, 9] was 17.2 L/h and the T1/2z [1, 9] was 18.8 h. The “% AUC0-inf Extrapolated” value [1, 10] was 3.59%, the AUC0-inf [1, 10] was 23.6 µg·h/mL and the ClNR/F [1, 10] was 19.0 L/h. The T1/2z [1, 10] was 15.0 h, the Ae0-120 [1, 3] was 297 µg and the fe0-120 [1, 3] was 0.0352. It also gave an Ae0-120 [1, 4] of 326 µg, a fe0-120 [1, 4] of 0.0386 and an Ae0-120 [1, 5] of 304 µg. The fe0-120 [1, 5] was 0.0360, the Ae0-120 [1, 6] was 327 µg and the fe0-120 [1, 6] was 0.0387. The Ae0-120 [1, 7] was 257 µg, the fe0-120 [1, 7] was 0.0304 and the Ae0-120 [1, 8] was 185 µg. The fe0-120 [1, 8] was 0.0220, the Ae0-120 [1, 9] was 204 µg and the fe0-120 [1, 9] was 0.0242. The Ae0-120 [1, 10] was 280 µg, the fe0-120 [1, 10] was 0.0332 and the Removal by hemodialysis ([1]; ESRD) was “not removed; also recorded: not cleared”. The AUC24 hr ([1]; ESRD) was 3650 ng·h/mL, the Cmax ([1]; ESRD) was 67.6 ng/mL and the AUC24 hr ([1]; Mild) was 1940 ng·h/mL. It also gave a Cmax ([1]; Mild) of 43.5 ng/mL, a t1/2 ([1]; Mild) of 45.5 h and an AUC24 hr ([1]; Moderate) of 2240 ng·h/mL. The Cmax ([1]; Moderate) was 34.1 ng/mL, the t1/2 ([1]; Moderate) was 70.8 h and the AUC24 hr ([1]; Normal) was 1270 ng·h/mL. It also gave a Cmax ([1]; Normal) of 33.6 ng/mL, a t1/2 ([1]; Normal) of 36.2 h and an AUC24 hr ([1]; Severe) of 7850 ng·h/mL. For the same compound, the Cmax ([1]; Severe) was 103 ng/mL, the t1/2 ([1]; Severe) was 220 h and the “Exposure (Geometric Mean Ratio for AUCinf) increase compared to normal subjects” value ([1]; mild (CLcr=51-80 mL/min)) was 1.6 fold. The “Terminal half-life prolonged by” value ([1]; mild renal impairment) was 26%, the “Exposure (Geometric Mean Ratio for AUCinf) increase compared to normal subjects” value ([1]; moderate (CLcr=31-50 mL/min)) was 2.3 fold and the “Terminal half-life prolonged by” value ([1]; moderate renal impairment) was 96%. For the same compound, the “Exposure (Geometric Mean Ratio for AUCinf) increase compared to normal subjects” value ([1]; severe (CLcr=5-30 mL/min)) was 16.7 fold, the “Maximum individual Cmax relative to the mean Cmax” value ([1]; severe renal impairment) was “more than five times” and the “Terminal half-life prolonged by” value ([1]; severe renal impairment) was 508%. For the same compound, the “AUC0-inf of subject 3285-009” value ([1]; severe renal impairment (ideal BW)) was 101 µg·h/mL, the Mean plasma concentration ([1]; severe renal impairment, eight individuals, day 1, 4 hours) was 99.5 ng/mL and the “Plasma concentration (Cmax) of subject 3285-009” value ([1]; severe renal impairment, day 1, 4 hours) was 542 ng/mL. The AUC0-inf ([2]; lorcaserin 2 mg/kg/day oral, F) was 41 µg·h/mL and 40.9 ± 1.6 µg·h/mL, the AUClast ([2]; lorcaserin 2 mg/kg/day oral, F) was 39.3 ± 1.8 µg·h/mL and the Cmax ([2]; lorcaserin 2 mg/kg/day oral, F) was 4.58 µg/mL. The tmax ([2]; lorcaserin 2 mg/kg/day oral, F) was 1.5 ± 0.6 h, the AUC0-inf ([2]; lorcaserin 2 mg/kg/day oral, M) was 62 µg·h/mL and 61.6 ± 15.4 µg·h/mL and the AUClast ([2]; lorcaserin 2 mg/kg/day oral, M) was 56.4 ± 14.3 µg·h/mL. For the same compound, the Cmax ([2]; lorcaserin 2 mg/kg/day oral, M) was 5.01 µg/mL, the tmax ([2]; lorcaserin 2 mg/kg/day oral, M) was 3.0 ± 1.2 h and the AUC0-inf [2, 11] was 307 ± 66 µg·h/mL. It also gave an AUClast [2, 11] of 269 ± 40 µg·h/mL, a Cmax [2, 11] of 27.5 ± 6.6 µg/mL and a tmax [2, 11] of 2.5 ± 1.0 h. It also gave an AUC0-inf [2, 12] of 312 ± 79 µg·h/mL, an AUClast [2, 12] of 276 ± 74 µg·h/mL and a Cmax [2, 12] of 22.0 ± 7.6 µg/mL. For the same compound, the tmax [2, 12] was 3.3 ± 1.5 h, the AUC0-inf [2, 13] was 877 ± 221 µg·h/mL and the AUClast [2, 13] was 771 ± 182 µg·h/mL. The Cmax [2, 13] was 56.3 ± 13.4 µg/mL, the tmax [2, 13] was 5.2 ± 2.4 h and the AUC0-inf [2, 14] was 1060 ± 313 µg·h/mL. For the same compound, the AUClast [2, 14] was 904 ± 228 µg·h/mL, the Cmax [2, 14] was 62.3 ± 14.1 µg/mL and the tmax [2, 14] was 4.7 ± 1.6 h. It also gave an AUC0-inf [2, 15] of 1910 ± 865 µg·h/mL, an AUClast [2, 15] of 1580 ± 501 µg·h/mL and a Cmax [2, 15] of 115 ± 24 µg/mL. For the same compound, the tmax [2, 15] was 3.5 ± 2.5 h, the AUC0-inf [2, 16] was 2020 ± 856 µg·h/mL and the AUClast [2, 16] was 1460 ± 269 µg·h/mL. The Cmax [2, 16] was 106 ± 31 µg/mL, the tmax [2, 16] was 3.7 ± 2.3 h and the “AUC0-inf in monkeys relative to predicted daily exposure in severe renal impairment” value ([2]; monkeys 2 mg/kg/day (NOAEL), human 10 mg BID) was 1.6-2.4 times. For the same compound, the “Cmax in monkeys relative to predicted Cmax in severe renal impairment” value ([2]; monkeys 2 mg/kg/day (NOAEL), human 10 mg BID steady state) was “approximately 5 times”, the “Cmax margin, monkeys vs predicted exposure in severe renal impairment” value ([2]; monkeys 10 mg/kg/day) was 20-25 times and the “AUC0-inf exposure margin, monkeys vs predicted daily exposure in severe renal impairment” value ([2]; monkeys 10 mg/kg/day, human 10 mg BID) was “about 12 fold”. The “Dose proportionality of plasma exposure” value ([2]; monkeys, Day 1, 2 to 125 mg/kg, both sexes) was “less than dose proportional”.
